Laboratory results published in patent US20090099231A1, “3-Sulfonylamino-Pyrrolidine-2-One Derivatives as Factor Xa Inhibitors” (priority 2005, published 2009).
Where a name gives a salt, the structure may show the parent alone.

Legend:
[1] = tested on: human plasma; assay: Measurement of Prothrombin Time (PT), time to clot formation in plasma; details: pooled plasma from 4 donors, test compound 0.03 to 100 uM, Thromboplastin C Plus
Protocol: Blood was collected into a sodium citrate solution (ratio 9:1) to give a final concentration of 0.38% citrate. Plasma was generated by centrifugation of citrated blood samples at 1200×g for 20 min at 4° C. and stored at −20° C. until use.
The PT test was performed using the BCS Coagulation Analyzer (Dade Behring). For assay, 50 ul of plasma containing test compound at concentrations ranging from 0.03 to 100 uM (made from a 100 uM stock containing 1% DMSO in plasma) was combined with 100 ul of Thromboplastin C Plus (Dade Behring). Upon addition of the reagents, absorbance at 405 nm was monitored and time to clot formation is determined (normal range for human plasma is 10.6-12.4 seconds).

[2] = target: human Factor Xa (Homo sapiens, UniProt P00742); assay: In vitro assay for inhibition of Factor Xa (fluorogenic assay, Rhodamine 110 bis-Cbz-glycylglycyl-L-arginine amide substrate); type: biochemical; details: for Factor Xa inhibitory activity: human Factor Xa 0.0003 U.ml-1, substrate 10 μM, 15 min preincubation, room temperature, pH 7.4; for Ki: Ki=IC50/(1+[Substrate]/Km), i.e. IC50 divided by 1.6, human Factor Xa fluorogenic assay
Sequence of human Factor Xa (P00742 235-488 limits assumed): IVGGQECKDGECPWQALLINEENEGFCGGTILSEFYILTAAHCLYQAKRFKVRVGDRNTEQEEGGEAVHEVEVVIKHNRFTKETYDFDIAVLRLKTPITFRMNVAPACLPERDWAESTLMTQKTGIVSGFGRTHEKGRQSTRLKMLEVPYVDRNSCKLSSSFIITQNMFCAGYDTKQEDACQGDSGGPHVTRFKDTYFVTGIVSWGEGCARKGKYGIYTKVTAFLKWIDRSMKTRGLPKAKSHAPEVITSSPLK
Sequence of human Factor Xa (P00742 41-179 partner limits assumed): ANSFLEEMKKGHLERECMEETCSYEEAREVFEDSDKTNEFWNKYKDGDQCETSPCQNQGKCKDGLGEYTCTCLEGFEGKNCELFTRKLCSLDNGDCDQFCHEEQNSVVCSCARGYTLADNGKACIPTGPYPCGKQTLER
Protocol: Compounds of the present invention were tested for their Factor Xa inhibitory activity as determined in vitro by their ability to inhibit human Factor Xa in a fluorogenic assay, using Rhodamine 110, bis-Cbz-glycylglycyl-L-arginine amide as the fluorogenic substrate. Compounds were diluted from a 10 mM stock solution in dimethylsulfoxide at appropriate concentrations. Assay was performed at room temperature using buffer consisting of: 50 mM Tris-HCl, 150 mM NaCl, 5 mM CaCl2, pH 7.4 containing human Factor Xa (final concentration of 0.0003 U.ml-1). Compound and enzyme were preincubated for 15 min prior to addition of the substrate (final concentration of 10 μM). The reaction was stopped after 3 hrs with the addition of H-D-Phe-Pro-Arg-Chloromethylketone. An LJL-Analyst fluorimeter was used to monitor fluorescence with 485 nm excitation/535 nm emission. To obtain IC50 values the data were analysed using ActivityBase® and XLfit®.
Ki=IC50/(1+[Substrate]/Km)
The Ki value for the above assay can be obtained by dividing the IC50 value by 1.6.

SMILES | activity in prothrombin time (PT) test [1] | Factor Xa inhibitory activity [2] | Ki [2]
CN1CCc2cc(N3CC[C@H](NS(=O)(=O)/C=C/c4ccc(Cl)s4)C3=O)ccc2C1.O=CO [Example 7, (E)-2-(5-Chloro-2-thienyl)-N-[(3S)-1-(2-methyl-1,2,3,4-tetrahydro-6-isoquinolinyl)-2-oxo-3-pyrrolidinyl]ethenesulfonamide formate] | exhibit activity | exhibit Factor Xa inhibitory activity | –
Cl.O=C1[C@@H](NS(=O)(=O)/C=C/c2ccc(Cl)s2)CCN1c1ccc2c(c1F)CCNC2 [Example 18, (E)-2-(5-Chloro-2-thienyl)-N-[(3S)-1-(5-fluoro-1,2,3,4-tetrahydro-6-isoquinolinyl)-2-oxo-3-pyrrolidinyl]ethenesulfonamide hydrochloride] | exhibit activity | exhibit Factor Xa inhibitory activity | –
Cl.O=C1[C@@H](NS(=O)(=O)/C=C/c2ccc(Cl)s2)CCN1c1ccc2c(c1)CCNC2 [Example 2, (E)-2-(5-Chloro-2-thienyl)-N-[(3S)-2-oxo-1-(1,2,3,4-tetrahydro-6-isoquinolinyl)-3-pyrrolidinyl]ethenesulfonamide hydrochloride] | exhibit activity | exhibit Factor Xa inhibitory activity | –
Cc1cc2c(cc1N1CC[C@H](NS(=O)(=O)/C=C/c3ccc(Cl)s3)C1=O)CCNC2.Cl [Example 28, (E)-2-(5-Chloro-2-thienyl)-N-[(3S)-1-(7-methyl-1,2,3,4-tetrahydro-6-isoquinolinyl)-2-oxo-3-pyrrolidinyl]ethenesulfonamide hydrochloride] | exhibit activity | exhibit Factor Xa inhibitory activity | –
Cl.O=C1[C@@H](NS(=O)(=O)c2ccc3cc(Cl)ccc3c2)CCN1c1cc2c(cc1F)CNCC2 [Example 20, 6-Chloro-N-[1-(7-fluoro-1,2,3,4-tetrahydro-6-isoquinolinyl)-2-oxo-3-pyrrolidinyl]-2-naphthalenesulfonamide hydrochloride] | exhibit activity | exhibit Factor Xa inhibitory activity | –
O=C1[C@@H](NS(=O)(=O)c2cc3cc(Cl)ccc3[nH]2)CCN1c1ccc2c(c1)CCNC2.O=CO [Example 36, 5-Chloro-N-[(3S)-2-oxo-1-(1,2,3,4-tetrahydro-6-isoquinolinyl)-3-pyrrolidinyl]-1H-indole-2-sulfonamide] | exhibit activity | exhibit Factor Xa inhibitory activity | < 10 nM
Cl.O=C1[C@@H](NS(=O)(=O)/C=C/c2ccc(Cl)s2)CCN1c1cc2c(cc1F)CNCC2 [Example 22, (E)-2-(5-Chloro-2-thienyl)-N-[(3S)-1-(7-fluoro-1,2,3,4-tetrahydro-6-isoquinolinyl)-2-oxo-3-pyrrolidinyl]ethenesulfonamide hydrochloride] | exhibit activity | exhibit Factor Xa inhibitory activity | –
Cc1cc2c(cc1N1CC[C@H](NS(=O)(=O)c3ccc4cc(Cl)ccc4c3)C1=O)CCNC2.Cl [Example 27, 6-Chloro-N-[(3S)-1-(7-methyl-1,2,3,4-tetrahydro-6-isoquinolinyl)-2-oxo-3-pyrrolidinyl]-2-naphthalenesulfonamide hydrochloride] | exhibit activity | exhibit Factor Xa inhibitory activity | –
CN1CCc2cc(N3CC[C@H](NS(=O)(=O)/C=C/c4ccc(Cl)cc4)C3=O)ccc2C1.O=CO [Example 37, (E)-2-(4-Chlorophenyl)-N-[(3S)-1-(2-methyl-1,2,3,4-tetrahydro-6-isoquinolinyl)-2-oxo-3-pyrrolidinyl]ethenesulfonamide formate] | exhibit activity | exhibit Factor Xa inhibitory activity | –
CC(C)N1CCc2cc(N3CC[C@H](NS(=O)(=O)c4ccc5cc(Cl)ccc5c4)C3=O)ccc2C1 [Example 30, 6-Chloro-N-{(3S)-1-[2-(1-methylethyl)-1,2,3,4-tetrahydro-6-isoquinolinyl]-2-oxo-3-pyrrolidinyl}-2-naphthalenesulfonamide] | exhibit activity | exhibit Factor Xa inhibitory activity | < 10 nM
Cl.O=C1[C@@H](NS(=O)(=O)c2ccc3cc(Cl)ccc3c2)CCN1c1ccc2c(c1)CNCC2 [Example 11, 6-Chloro-N-[(3S)-2-oxo-1-(1,2,3,4-tetrahydro-7-isoquinolinyl)-3-pyrrolidinyl]-2-naphthalenesulfonamide hydrochloride] | exhibit activity | exhibit Factor Xa inhibitory activity | –
CC1Cc2cc(N3CC[C@H](NS(=O)(=O)c4ccc5cc(Cl)ccc5c4)C3=O)ccc2CN1.O=CO (stereo partly drawn) [Example 38, 6-Chloro-N-[(3S)-1-(3-methyl-1,2,3,4-tetrahydro-6-isoquinolinyl)-2-oxo-3-pyrrolidinyl]-2-naphthalenesulfonamide formate] | exhibit activity | exhibit Factor Xa inhibitory activity | –
Cl.O=C1[C@@H](NS(=O)(=O)/C=C/c2ccc(Cl)s2)CCN1c1ccc2c(c1)CNCC2 [Example 13, (E)-2-(5-Chloro-2-thienyl)-N-[(3S)-2-oxo-1-(1,2,3,4-tetrahydro-7-isoquinolinyl)-3-pyrrolidinyl]ethenesulfonamide hydrochloride] | exhibit activity | exhibit Factor Xa inhibitory activity | –
CC1NCCc2cc(N3CC[C@H](NS(=O)(=O)/C=C/c4ccc(Cl)s4)C3=O)ccc21 (stereo partly drawn) [Example 32, (E)-2-(5-Chloro-2-thienyl)-N-[(3S)-1-(1-methyl-1,2,3,4-tetrahydro-6-isoquinolinyl)-2-oxo-3-pyrrolidinyl]ethenesulfonamide hydrochloride] | exhibit activity | exhibit Factor Xa inhibitory activity | < 10 nM
Cl.O=C1[C@@H](NS(=O)(=O)c2ccc3cc(Cl)ccc3c2)CCN1c1cc2c(cc1Cl)CNCC2 [Example 24, 6-Chloro-N-[(3S)-1-(7-chloro-1,2,3,4-tetrahydro-6-isoquinolinyl)-2-oxo-3-pyrrolidinyl]-2-naphthalenesulfonamide hydrochloride] | exhibit activity | exhibit Factor Xa inhibitory activity | –
Cl.O=C1[C@@H](NS(=O)(=O)c2ccc3c(Cl)c[nH]c3c2)CCN1c1cc2c(cc1F)CNCC2 [Example 23, 3-Chloro-N-[(3S)-1-(7-fluoro-1,2,3,4-tetrahydro-6-isoquinolinyl)-2-oxo-3-pyrrolidinyl]-1H-indole-6-sulfonamide hydrochloride] | exhibit activity | exhibit Factor Xa inhibitory activity | –
Cl.O=C1[C@H](NS(=O)(=O)c2ccc3cc(Cl)ccc3c2)CCN1c1ccc2c(c1)CCNC2 [Example 16, 6-Chloro-N-[(3R)-2-oxo-1-(1,2,3,4-tetrahydro-6-isoquinolinyl)-3-pyrrolidinyl]-2-naphthalenesulfonamide hydrochloride] | exhibit activity | exhibit Factor Xa inhibitory activity | –
